Key:
GFP-LC3 transgenic mice = test: GFP-LC3 puncta in tissues of GFP-LC3 transgenic mice; assay type: in vivo, mouse; details: for numbers of GFP-LC3 puncta (autophagosomes): mouse brain; for number of GFP-LC3 puncta (autophagosomes): brain frontal cortex, heart, liver and muscle
From the text: Results represent mean±s.d. Scale bar, 25 μm. N>100 cells or N2::4 mice.
Scale bar, 20 μm. Results represent mean±s.d. N≥4 mice.
Results represent mean±s.e.m. Statistics compare each value to the one with DMSO treatment. *, P<0.05; **, P<0.01; ***, P<0.001, t test. Scale bar: 20 μm.
To test this hypothesis, it was confirmed that Rg2 induces autophagy in vivo, by injecting Rg2 intraperitoneally (i.p.) into transgenic mice globally expressing GFP-LC3. […] Furthermore, in vivo autophagy induction by Rg2 via GFP-LC3 puncta assays in both muscle and brain was examined. […] Thus, the majority of Rg2 is not bound by plasma proteins and is freely available. Taken together, Rg2 was identified as a new in vivo autophagy inducer in vivo.
(§1) Autophagy analyses. For assessment of autophagy in vivo, 8-week old male WT and Becn 1FA/FA mice crossed to GFP-LC3 mice were exercised for 90 minutes, or starved for 48 h, and then anaesthetized by isoflurane and perfused with 4% PFA Brain and muscle samples were fixed in 4% PFA overnight, 15% sucrose for 4 h and 30% sucrose overnight before frozen sections were prepared. The number of GFP-LC3 puncta per unit area of tissue was quantified by fluorescence microscopy. Autophagy in vivo was also analyzed by western blot analysis of brain tissue extracts with antibodies against LC3 and p62/SQSTM1 (see below for details).

LC3 and p62/SQSTM1 = test: Western blot detection of LC3 and p62/SQSTM1 in mouse tissues; assay type: in vivo; details: for LC3-II conversion / levels of p62 (SQSTM1): mouse brain
Description: WAT, white adipose tissue; BAT, brown adipose tissue.
as §1
Western blot analyses. Cell or mouse muscle and brain extracts were prepared in lysis buffer containing 50 mM Tris (pH 7.4), 150 mM NaCl, 1 mM EDTA, 1% Triton X-100, halt proteinase inhibitor cocktail (ThermoFisher Scientific) and halt phosphatase inhibitor cocktail (ThermoFisher Scientific), and subjected to western blot analysis with anti-LC3 (Novus Biologicals, NB100-2220), anti-SQSTM 1 (Abnova, H00008878-M01), anti-Af342 (Invitrogen; 700254), anti-APP (Biolegend; 803001), HRP-conjugated GFP antibody (Santa Cruz Biotechnology, sc9996), anti-HA (Cell Signaling Technology, C29F4), anti-ATG7 (Sigma Aldrich; A2856), anti-LDLR (Abeam, ab52818), anti-LRP 1 (Abeam, ab92544), and anti-ACTB/f3-actin-HRP (Santa Cruz Biotechnology, sc47778 HRP) antibodies. The band intensity was analyzed using the ImageJ software.

Beclin 2-GASP1 binding = test: Coimmunoprecipitation of endogenous GASP1 with endogenous Beclin 2 from mouse brain lysates; assay type: in vivo; details: injection to WT mice
From the text: Lysates in each group were pooled from 3 mice.
Based on this model, the effect of these inducers on the Beclin 2-GASP1 interaction in vitro and in mouse brain were subsequently examined.

CB1R = test: Brain CB1R (CNR1) level by Western blot after chronic WIN; assay type: in vivo, mouse; details: mice concurrently treated with daily WIN for 14 d
Description: To investigate whether restoration of CB1R signaling underlies the behavioral regulation by autophagy activation, the level and functionality of CB1R in mouse brain after co-administration of chronic cannabinoids and autophagy inducers were analyzed. […] To determine whether the increased level of CB1R represents CB1R re-sensitization in the brain, the agonist-induced phosphorylation of signaling kinases downstream of CB1R after chronic WIN exposure were analyzed.

Aβ42 = test: Dot blot assay of Aβ42 in brain of 5XFAD mice; assay type: in vivo, mouse
Description: Total protein loading was labeled by Ponceau S. N=5. **, P<0.01, t test.
Total protein loading was labeled by Ponceau S. Triplicate experiments from 4-5 mice in each group were shown. Results represent mean±s.e.m. NS, not significant; *, P<0.05; **, P<0.01; ***, P<0.001, t test.
Total protein loading was labeled by Ponceau S. Triplicate experiments from 4 mice in each group were shown.
Dot blot assay. Snap frozen hemi-brain were homogenized in 800 μl phosphate-buffered saline (PBS; Sigma-Aldrich, D8537) with 1% Triton X-100 supplemented with halt proteinase inhibitor cocktail (ThermoFisher Scientific), and halt phosphatase inhibitor cocktail (ThermoFisher Scientific). Protein concentration was quantified using BCA Assay (Pierce). For Af342 dot blots, 10 mg/ml brain homogenates were extracted in guanidine buffer (5 M guanidine-HCl [GuHCl], 50 mM Tris HCl pH 8.0) overnight at room temperature. One μl of sample was spotted in triplicate on 0.2 μm nitrocellulose membrane, and dried for 1 h at 37° C. The membrane was stained with Ponceau S, and the dot blot signal on the membrane was detected by immunostaining with Aβ42 antibody (Invitrogen, 700254, 1:1000) and HRP-conjugated secondary antibody (Santa Cruz Biotechnology, sc2004, 1:2000). Aβ42 signals were normalized to the Ponceau S staining. To separate soluble and insoluble Aβ fractions, 10 mg/ml of the total homogenated brains were centrifuged at 14000 rpm, 4° C. for 30 min. The supernatant (soluble fraction) was used directly for dot blot assays. The pellet (insoluble fraction) was extracted in guanidine buffer overnight at room temperature, and used in dot blot analyses. […] One μl of each sample was spotted on nitrocellulose membrane for dot blot analysis.

5XFAD mice = test: Morris water maze test of 5XFAD mice; assay type: in vivo, mouse
Description: Escape latency and total distance traveled in visible platform test and hidden platform test are shown. N=10-11. Results represent mean±s.e.m. Two-way repeated measures ANOVA.
Escape latency and total distance traveled in visible platform test and hidden platform test are shown. Results represent mean±s.e.m. Statistics were analyzed by the IBM SPSS Statistics Tools comparing differences between 2 curves.
Morris water maze testing. For animal behavior, 6-month old mice were tested. The Morris water maze test consists of two sections: the visible platform testing and hidden platform testing. During the tests, mice were placed in the water tank filled with opaque water (maintained at 25° C.), with their heads facing toward the tank wall. In the visible platform section, a black platform extending 2 cm above the water level was used for these trials. For each trial, the platform was randomly positioned, and the mouse was placed in the tank at different start positions. The trial was stopped after the mouse found and climbed onto the platform, and the escape latency was recorded. […] Mice were tested for 4 days with eight trials per day. In the hidden platform section, a transparent platform underneath the water level was used instead of the black one during all trials, mice were tested with a fixed platform location over 5 days period with six trials per day, and they were allowed to search the platform in 60 s. In the tests, two parameters were evaluated: the trail duration (s) and distance to the platform (m).

[1] = 6-month old 5XFAD mice, ML246 5 mg/kg i.p. for 5 weeks
[2] = liver, muscle, brain, heart, white and brown adipose tissue

Compound | numbers of GFP-LC3 puncta (autophagosomes) (GFP-LC3 transgenic mice) | LC3-II conversion (LC3 and p62/SQSTM1) | levels of p62 (SQSTM1) (LC3 and p62/SQSTM1) | binding between endogenous Beclin 2 and endogenous GASP1 (Beclin 2-GASP1 binding) | levels of CB1R (CNR1) in the brain (CB1R) | insoluble Aβ42 in brain (Aβ42; [1]) | soluble Aβ42 in brain (Aβ42; [1]) | effect on brain Aβ42 (Aβ42; autophagy-deficient 5XFAD Becn1+/− KO mice, ML246 5 weeks) | performance during the hidden platform trials (5XFAD mice; 6-month old 5XFAD mice, ML246 daily for 5 weeks) | number of GFP-LC3 puncta (autophagosomes) (GFP-LC3 transgenic mice; 10 mg/kg i.p.) | number of GFP-LC3 puncta (autophagosomes) (GFP-LC3 transgenic mice; 20 mg/kg i.p.) | duration of autophagy activity (GFP-LC3 transgenic mice; brain) | time of peak of autophagy activity (GFP-LC3 transgenic mice; brain) [h] | time of decline of autophagy to the basal level (GFP-LC3 transgenic mice; muscle) [h] | time of peak of induced autophagy (GFP-LC3 transgenic mice; muscle) [h] | LC3-I to LC3-II conversion (LC3 and p62/SQSTM1; [2]) | levels of SQSTM1 (LC3 and p62/SQSTM1; [2]) | level of brain Aβ42 (Aβ42; Rg2 injection for 16 weeks in 2 month-old male 5XFAD mice vs vehicle (DMSO)) | escape latency and distance, hidden platform (5XFAD mice; 5XFAD mice, Rg2 for 4 months) | escape latency or distance, visible platform (5XFAD mice; WT, vehicle-treated and Rg2-treated mice)
N=c1c2c(-c3ccccc3)c(-c3ccccc3)n(Cc3ccccc3)c2ncn1[C@H]1CC[C@H](O)CC1 [ML246] | markedly increased | not detect significant changes | decreased | dramatically decreased | higher levels | decreased levels | decreased levels | abolished | improved the performance |  |  |  |  |  |  |  |  |  |  | 
CC(C)=CCC[C@](C)(O)[C@H]1CC[C@]2(C)[C@@H]1[C@H](O)C[C@@H]1[C@@]3(C)CC[C@H](O)C(C)(C)[C@@H]3[C@@H](O[C@@H]3O[C@H](CO)[C@@H](O)[C@H](O)[C@H]3O[C@@H]3O[C@@H](C)[C@H](O)[C@@H](O)[C@H]3O)C[C@]12C [Rg2, ginsenoside Rg2] | markedly increased | not detect significant changes | decreased | dramatically decreased | higher levels |  |  |  |  | significantly increases | significantly increases | at least 24 h | 4 | 8 to 16 | 4 | increased | decreased levels | effectively decreased | significantly improved performance | no significant difference
